Data taken from EPA's ToxValDB 9.5 (doi:10.2903/j.efsa.2010.1906).
Converted amounts (≈) assume the structure as drawn.

Tests used:
Anas platyrhynchos = conditions: reproductive
Rattus norvegicus = conditions: oral
Landoltia sp. = conditions: acute; duration: 14 days
Apis mellifera = conditions: acute; duration: 48 hours; oral; unspecified; mortality
Canidae = conditions: subchronic; duration: 90 days; oral; F; Dog Other; body weight
Daphnia magna = conditions: chronic/long-term; duration: 21 days; reproduction
Bibionidae = conditions: chronic/long-term; duration: 28 days; development
Colinus virginianus = conditions: acute, oral, mortality
Oryctolagus sp. = conditions: developmental; development
Pimephales promelas = conditions: chronic/long-term; duration: 34 days; reproduction
Lepomis macrochirus = conditions: acute; duration: 96 hours; mortality
Mus musculus = conditions: chronic; histopathology: neoplastic
Folsomia candida = conditions: chronic/long-term, duration: 28 days

Structure (SMILES): CCOc1cc(Oc2ccc(C(F)(F)F)cc2Cl)ccc1[N+](=O)[O-] [Oxyfluorfen]
- NOEL (Anas platyrhynchos): 64.7 mg/kg-day
- LD50 (Rattus norvegicus; acute, mortality): > 5000 mg/kg-day
- NOAEL (Rattus norvegicus; chronic, duration: 2 years): 20 mg/kg-day
- NOEC (Landoltia sp.): 0.00195 mg/L
- LD50 (Apis mellifera): > 100 µg/piece
- LC50 (Tagia sp.; acute, duration: 14 days, mortality): > 1000 mg/kg
- NOEC (Tagia sp.; chronic/long-term, duration: 56 days): 24 mg/kg
- NOAEL (Canidae): 2.17 mg/kg-day
- NOEC (Daphnia magna): 0.013 mg/L
- NOEC (Bibionidae): 0.08 mg/L
- LD50 (Colinus virginianus; diet): > 462 mg/kg-day
- LD50 (Colinus virginianus): > 2150 mg/kg-day
- NOAEL (Oryctolagus sp.): 30 mg/kg-day
- NOEC (Pimephales promelas): 0.038 mg/L
- LC50 (Lepomis macrochirus): 0.21 µg/mL (≈ 0.581 µM)
- NOAEL (Mus musculus): 3 mg/kg-day
- LC50 (Folsomia candida; mortality): 2.78 mg/kg
- NOEC (Folsomia candida; reproduction): 1.25 mg/kg
